Experimental data: patent US20210187105A1, “COMBINATION THERAPY OF ANTI-MIF ANTIBODIES AND GLUCOCORTICOIDS” (Baxalta Incorporated, priority 2012, published 2021)

Key:
[1] = tested on: Contact hypersensitivity (CHS) response to 2,4-dinitrofluorobenzene (DNFB) in C57BL/6 mice; assay: Contact hypersensitivity (CHS) response to DNFB, ear swelling; format: in vivo, mouse; settings: topical
Description: The Contact hypersensitivity (CHS) response to 2,4-dinitrofluorobenzene (DNFB) was determined using a modification of an earlier model described (see Ludwig, et al., 2010, Am J Pathol 176, 1339-1345). C57BL/6 mice were sensitized by treating the shaved mouse back skin with 75 μl of DNFB (Sigma, St. Louis, Mo.) solution (0.5% in acetone/olive oil, 4/1). […] the right ears of the mice were challenged with 20 μl 0.3% DNFB to cause a local inflammatory response. The vehicle (acetone/olive) oil was applied to the left ears as a control. The swelling response to DNFB, specified as the difference between the right and left ears, was measured 24 h after challenge using a micrometer (Mitutoyo Co., Tokyo, Japan). 8 mice were used per group.

[2] = tested on: immune mediated-nephrotoxic nephritis (NTN) in Wistar Kyoto (WKY) rats; assay: Animal model for crescentic glomerulonephritis (nephrotoxic nephritis); format: in vivo, rat
Text: This model is recognized in the art as predictable to show the effects of the invention. It is suitable to show the effects of the combination therapy over the complete range of diseases which can be subsumed under the above definition of “MIF related diseases” particularly, this model is suitable for the following diseases: Lupus nephritis, anti-GBM nephritis, ANCA nephritis, IgA nephropathy. Dexamethasone is recognized in the art as predictive for a respective glucocorticoid in the treatment of a human. […] This model has a rapid onset of disease with macrophage infiltration, fibrin deposition and tissue destruction 12. NTN is induced in male WKY rats by single intravenous injection of 0.1 ml rabbit anti-rat glomerular basement membrane serum (day 0). mAb and Dexamethasone is injected intraperitoneally at time points and dosages described below. 24 hour urine samples are collected using metabolic cages before induction of glomerulonephritis and at various time intervals after induction of nephritis for quantification of proteinuria. Sections of renal tissues are frozen for subsequent analysis by immunohistology. Morphology of renal injury is assessed in haematoxylin/eosin (H&E) and periodic acid-Schiff (PAS) stained renal tissue sections. Macrophage is detected by immunoperoxidase technique and using the monoclonal mouse antibody ED1 (Serotec, U C). The animal model was described in detail (Tam F W K, Smith J, Morel D, Karkar A M, Thompson E M, Cook H T, Pusey C D: Development of scarring and renal failure in a rat model of crescentic glomerulonephritis. Nephrol Dial Transplant 14:1658-1666, 1999).

[3] = single intraperitoneal injection of 0.25 mg/kg, 4 days after induction, day 8

What does the source list for C[C@]12CCC(=O)C=C1CC[C@@H]1[C@@H]2[C@@H](O)C[C@@]2(C)[C@H]1CC[C@]2(O)C(=O)CO [hydrocortisone]?
anti-inflammatory effects, ear thickness ([1]; 1% in DAC base cream ointment, without antibody): sub-optimal anti-inflammatory effects; ear swelling ([1]; suboptimal dose 1% in DAC base cream, in combination with 10 mg/kg isotype control antibody): did not reduce ear swelling

Which results are given for C[C@@H]1C[C@H]2[C@@H]3CCC4=CC(=O)C=C[C@]4(C)[C@@]3(F)[C@@H](O)C[C@]2(C)[C@@]1(O)C(=O)CO [Dexamethasone, reference compound]?
suboptimal dexamethasone concentration ([2]; dose finding): 0.025 mg/kg; reduction of crescent counts [2, 3]: approximately 25%; reduction of glomerular macrophage infiltration [2, 3]: approximately 53%; reduction of proteinuria ([2]; single intraperitoneal injection of 0.25 mg/kg, 4 days after induction, urine day 7 to day 8): approximately 50%
